# From US20220249413A1, “SWELL 1 MODULATORS FOR TREATMENT OF NON-ALCOHOLIC FATTY LIVER DISEASE, IMMUNE DEFICIENCIES, MALE INFERTILITY AND VASCULAR DISEASES” (priority 2019, published 2022)
# Key:
# SWELL1 = SWELL1 expression in adipose tissue of treated T2D mice (Western blot); assay type: in vivo, mouse; details: 5 mg/kg i.p.
# Description: Patients Human islets and adipocytes were obtained and cultured as described previously (Zhang et al., Nat Cell Biol, 19, 504-517, 2017; Kang et al., Nature Communications, 9, 367, 2018). The Patients involved in the study were anonymous and information such as gender, age, HbA1c, glucose levels and BMI only were available to the research team. The study was approved and carried out as per the guidelines of the University of Iowa Institutional Review Board (IRB). Animals All experimental procedures involving mice were approved by the Institutional Animal Care and Use Committee of the University of Iowa and Washington University at St. Louis. All C57BL/6 mice involved in study were purchased from Charles River Labs. Both KK.Cg-Ay/J (KKA^y) and KK.Cg-Aa/J (KKA^a) mice involved in study were gender and age-matched mice obtained from Jackson Labs (Stock No: 002468) and bred up for experiments. The mice were fed ad libitum with either regular chow (RC) or high-fat diet (Research Diets, Inc., 60 kcal % fat) with free access to water and housed in a light-, temperature- and humidity-controlled room. For high-fat diet (HFD) studies, only male mice were used and were started on HFD regimen at the age of 6-9 weeks. For all experiments involving KKA^y and KKA^a mice, both males and females were used at approximately 50/50 ratio. […] Based on GFP fluorescence, viral transduction efficiency was ˜90%. […]
# VRAC/ICl,SWELL = molecular target: T1, VRAC/ICl,SWELL (Homo sapiens, UniProt Q8IWT6); details: read-out: IC50 as VRAC/ICl,SWELL inhibitor; cited from earlier work
# T1 sequence (Q8IWT6 1-810): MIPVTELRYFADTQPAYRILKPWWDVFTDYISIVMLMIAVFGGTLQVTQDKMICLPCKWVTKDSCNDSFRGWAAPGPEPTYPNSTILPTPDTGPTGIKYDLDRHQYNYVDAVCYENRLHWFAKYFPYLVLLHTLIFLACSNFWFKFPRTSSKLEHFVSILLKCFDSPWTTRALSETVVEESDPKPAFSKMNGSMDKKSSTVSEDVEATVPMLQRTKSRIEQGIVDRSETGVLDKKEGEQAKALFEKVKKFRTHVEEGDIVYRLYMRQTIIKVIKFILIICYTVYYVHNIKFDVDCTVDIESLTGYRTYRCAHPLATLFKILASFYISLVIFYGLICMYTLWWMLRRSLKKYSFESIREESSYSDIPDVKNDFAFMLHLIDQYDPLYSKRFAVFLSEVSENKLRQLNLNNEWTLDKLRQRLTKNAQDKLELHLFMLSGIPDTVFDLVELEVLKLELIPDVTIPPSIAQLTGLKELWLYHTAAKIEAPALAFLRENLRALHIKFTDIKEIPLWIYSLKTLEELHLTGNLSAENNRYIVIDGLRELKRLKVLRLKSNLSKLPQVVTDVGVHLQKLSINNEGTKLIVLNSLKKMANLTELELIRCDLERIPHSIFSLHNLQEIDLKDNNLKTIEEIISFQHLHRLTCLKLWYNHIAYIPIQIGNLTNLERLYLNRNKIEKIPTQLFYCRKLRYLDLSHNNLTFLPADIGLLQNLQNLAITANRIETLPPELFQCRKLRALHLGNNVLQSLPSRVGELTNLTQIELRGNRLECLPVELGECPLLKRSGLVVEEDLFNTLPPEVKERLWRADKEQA
structure (smiles),measurement,setting,value
"CCCCC1(C2CCCC2)Cc2cc(OCCCC(=O)O)c(Cl)c(Cl)c2C1=O (stereo not drawn) [Smod1, 4-[(2-Butyl-6,7-dichloro-2-cyclopentyl-2,3-dihydro-1-oxo-1H-inden-5-yl)oxy]butanoic acid]",augmentation of SWELL1 expression in adipose tissue,SWELL1; HFD-fed T2D mice,2.3 fold
same,adipose SWELL1 expression,SWELL1; KKA^y mice,levels comparable to both non-T2D C57/B6 mice and to the parental KKA^a parental strain
same,IC50,"VRAC/ICl,SWELL",2 to 4 µM
